Test system: retinal blood vessels
Assay: fluorocarbon inserted into the vitreous area of the rabbit eye, examination for retinal vessel damage
Assay type: in vivo
Conditions: 1.2 ml into one eye each of two rabbits after gas compression of the vitreous body; durations of between two days and six weeks
Description: In fluorescence angiography, a narrowing of the vessels appears from the second post-operative day. As time passes, vessel occlusions, a rarefaction of the capillary bed and the development of microaneurisms appear.
This oxygen-lacking perfluorodecalin was then sterile filtered and injected into one eye each of two rabbits, whereby, prior to the injection, the vitreous body was gas compressed in a known manner. After the gas compression, the gas was […] exchanged for 1.2 ml of the deoxygenated perfluorodecalin, so that about two thirds of the vitreous body area, including the area of the retinal blood vessels, was filled with perfluorodecalin.
After durations of between two days and six weeks, the eyes were examined for vessel damage.

FC1(F)C(F)(F)C(F)(F)C2(F)C(F)(F)C(F)(F)C(F)(F)C(F)(F)C2(F)C1(F)F (stereo not shown) [oxygen-lacking perfluorodecalin, perfluorodecalin]
eyes examined for vessel damage, in comparison to the untreated eye: completely normal condition

Source: patent US6372243B2, “Low-oxygen fluorocarbon as an agent for ophthalmology” (Pharm pur GmbH, priority 1998, dated 2002)
